Measured values taken from the supplement of paper PMC10307832.

How the values were obtained:
Experiment in all cases: relative viability (nuclei count vs DMSO), 5 days (fraction); higher = more cells survive
Cediranib = compound: COc1cc2c(Oc3ccc4[nH]c(C)cc4c3F)ncnc2cc1OCCCN1CCCC1 [Cediranib]
Outline: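 A plate was accepted only when its control CV was below 25% and the cells had doubled at least once. Viability is defined from nuclear counts as treated wells divided by vehicle wells, with the median taken across plates. That median covers lung cancer cell lines grown in 1536-well plates, dosed by pinning at five √10-spaced library-drug concentrations, and counted in MetaXpress from 4× Hoechst images after 5 days.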

Decitabine + Pictilisib = compound: Nc1ncn([C@H]2C[C@H](O)[C@@H](CO)O2)c(=O)n1 [Decitabine] + CS(=O)(=O)N1CCN(Cc2cc3nc(-c4cccc5[nH]ncc45)nc(N4CCOCC4)c3s2)CC1 [Pictilisib] (partner 1 µM)
Outline: (§1)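 Dosing by pin tool came one day after lung cancer cell lines were seeded in 1536-well plates, using either one drug or a fixed anchor-drug dose plus five library-drug doses (not always all listed) in √10 steps. After 5 days, nuclei were counted on 4× images. Relative viability is treated-well nuclei count divided by vehicle-well nuclei count, and values are medians of duplicate plates.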

Decitabine + Linsitinib = compound: Nc1ncn([C@H]2C[C@H](O)[C@@H](CO)O2)c(=O)n1 [Decitabine] + C[C@]1(O)C[C@@H](c2nc(-c3ccc4ccc(-c5ccccc5)nc4c3)c3c(N)nccn32)C1 [Linsitinib] (partner 1 µM)
Outline: as §1

Halofuginone + AZD7762 = compound: O=C(C[C@H]1NCCC[C@@H]1O)Cn1cnc2cc(Br)c(Cl)cc2c1=O (racemic) [Halofuginone] + NC(=O)Nc1cc(-c2cccc(F)c2)sc1C(=O)N[C@H]1CCCNC1 [AZD7762] (partner 0.2 µM)
Outline: as §1

Row | Cell Line | relative viability (Cediranib; 0.04 µM) | relative viability (Cediranib; 0.1265 µM) | relative viability (Cediranib; 0.4 µM) | relative viability (Cediranib; 1.265 µM) | relative viability (Cediranib; 4 µM) | relative viability (Decitabine + Pictilisib; first compound 0.04 µM) | relative viability (Decitabine + Pictilisib; first compound 0.1265 µM) | relative viability (Decitabine + Pictilisib; first compound 0.4 µM) | relative viability (Decitabine + Pictilisib; first compound 1.265 µM) | relative viability (Decitabine + Pictilisib; first compound 4 µM) | relative viability (Decitabine + Linsitinib; first compound 0.04 µM) | relative viability (Decitabine + Linsitinib; first compound 0.1265 µM) | relative viability (Decitabine + Linsitinib; first compound 0.4 µM) | relative viability (Decitabine + Linsitinib; first compound 1.265 µM) | relative viability (Decitabine + Linsitinib; first compound 4 µM) | relative viability (Halofuginone + AZD7762; first compound 0.001 µM) | relative viability (Halofuginone + AZD7762; first compound 0.003162 µM) | relative viability (Halofuginone + AZD7762; first compound 0.01 µM) | relative viability (Halofuginone + AZD7762; first compound 0.03162 µM) | relative viability (Halofuginone + AZD7762; first compound 0.1 µM)
1 | NCI-H1623 | 1 | 0.599 | 0.879 | 1.04 | 1.07 | – | – | – | – | – | – | – | – | – | – | – | – | – | – | –
2 | NCI-H2228 | 1.18 | 1.08 | 0.763 | 1.06 | 1.13 | 0.355 | 0.441 | 0.179 | 0.287 | 0.232 | 0.377 | 0.589 | 0.613 | 0.356 | 0.291 | – | – | – | – | –
3 | NCI-H2342 | 1 | 1.1 | 0.899 | 0.746 | 1.07 | – | – | – | – | – | – | – | – | – | – | 0.458 | 0.536 | 0.507 | 0.487 | 0.588
4 | Calu-6 | 0.982 | 1.03 | 0.977 | 1.04 | 1.03 | 0.76 | 0.685 | 0.468 | 0.334 | 0.243 | 0.807 | 0.682 | 0.494 | 0.33 | 0.193 | – | – | – | – | –
5 | SW 900 | 0.811 | 0.774 | 0.737 | 0.835 | 0.952 | – | – | – | – | – | – | – | – | – | – | 0.677 | 0.564 | – | 0.621 | 0.46
6 | COR-L 105 | 0.862 | 0.911 | 0.944 | 0.889 | 0.923 | 0.327 | 0.442 | 0.405 | 0.341 | 0.292 | 1.02 | 0.768 | 0.738 | 0.506 | 0.486 | – | – | – | – | –
7 | NCI-H520 | 1.12 | 0.747 | 0.917 | 0.804 | 0.865 | 0.315 | 0.271 | 0.241 | 0.222 | 0.198 | 1.13 | 0.916 | 0.633 | 0.333 | 0.324 | – | – | – | – | –
8 | NCI-H522 | 1.04 | 0.745 | 0.947 | 0.961 | 1.02 | – | – | – | – | – | – | – | – | – | – | 0.969 | 0.948 | 0.974 | 0.852 | 0.813
9 | NCI-H1563 | 0.97 | 1.39 | 1.03 | 0.961 | 1.13 | 0.682 | 0.63 | 0.779 | 0.693 | 0.635 | 1.33 | 1.21 | 1.41 | 1.23 | 1.17 | – | – | – | – | –
10 | NCI-H661 | 0.988 | 0.98 | 0.974 | 0.957 | 1.1 | 0.346 | 0.344 | 0.372 | 0.288 | 0.242 | 0.566 | 0.502 | 0.406 | 0.248 | 0.267 | – | – | – | – | –
11 | SK-MES-1 | 1.06 | 1.12 | 0.961 | 0.967 | 1.09 | 0.258 | 0.367 | 0.427 | 0.271 | 0.243 | 0.928 | 0.845 | 0.554 | 0.437 | 0.339 | – | – | – | – | –
12 | EBC-1 | 0.999 | 0.946 | 0.971 | 1.01 | 1.19 | 0.277 | 0.295 | 0.252 | 0.214 | 0.169 | 0.693 | 0.704 | 0.417 | 0.316 | 0.247 | – | – | – | – | –
13 | NCI-H1650 | 1 | 0.962 | 0.833 | 0.8 | 0.822 | 0.445 | 0.595 | 0.272 | 0.47 | 0.399 | – | – | – | – | – | – | – | – | – | –
14 | SW 1573 | 1.01 | 0.974 | 0.969 | 0.828 | 0.927 | 0.535 | 0.425 | 0.491 | 0.279 | 0.202 | 0.666 | 0.793 | 0.697 | 0.408 | 0.392 | – | – | – | – | –
15 | NCI-H1299 | 1.02 | 1.02 | 0.99 | 1.03 | 1.09 | 0.836 | 0.881 | 0.829 | 0.619 | 0.505 | 0.976 | 1.06 | 1.03 | 0.918 | 0.802 | – | – | – | – | –
16 | SK-LU-1 | 1.12 | 1.02 | 0.957 | 0.924 | 1.11 | 0.53 | 0.447 | 0.306 | 0.365 | 0.282 | 0.76 | 0.744 | 0.487 | 0.545 | 0.45 | – | – | – | – | –
17 | COR-L23 | 1.06 | 0.957 | 0.914 | 1 | 1.27 | 0.527 | 0.619 | 0.239 | 0.178 | 0.172 | 0.647 | 0.482 | 0.374 | 0.272 | 0.19 | – | – | – | – | –
18 | A549 | 0.929 | 0.953 | 0.889 | 0.897 | 0.996 | 0.444 | 0.49 | 0.37 | 0.256 | 0.166 | 0.535 | 0.731 | 0.554 | 0.299 | 0.151 | – | – | – | – | –
19 | NCI-H2023 | 1 | 1.02 | 0.902 | 0.878 | 1.19 | 0.244 | 0.252 | 0.174 | 0.142 | 0.143 | 0.588 | 0.524 | 0.406 | 0.237 | 0.195 | – | – | – | – | –
20 | IA-LM | 0.951 | 0.948 | 0.877 | 0.888 | 1.08 | 0.253 | 0.269 | 0.163 | 0.147 | 0.0969 | 0.281 | 0.461 | 0.174 | 0.155 | 0.129 | – | – | – | – | –
21 | NCI-H2009 | 1.01 | 0.958 | 0.984 | 0.988 | 1.1 | 0.773 | 0.672 | 0.351 | 0.386 | 0.245 | 1.08 | 0.801 | 0.601 | 0.383 | 0.33 | – | – | – | – | –
